Test results reported in patent publication US20250066423A1, “SESTRIN-MAPK COMPLEX INHIBITORS” (Sentcell Ltd, priority 2021, published 2025).

Experiments:
[1] = test system: sMAC signalling (sestrin 1, 2 and 3 expression, AMPK and MAPK phosphorylation); assay: Immunoblot of sMAC signalling in CD4+ T cells treated with DOS compounds (heat-map); type: cell-based, human
Procedure: CD4+ T cells were isolated from PBMCs from healthy donors, treated with DOS compounds for 4 hours and harvested for immunoblot analysis. The heat-map of Sestrin 1, Sestrin 2, Sestrin 3, p-mTOR1, p-JNK, p-AMPK, p-ERK1/2, and p-p38, represents the mean of three to nine experiments. Histone 3 was used as a control.
• 1. CD4+ cells were separated from PBMC using appropriate microbeads kit (Miltenyi) • 2. Cells were resuspended in whole RPMI medium and plated in the 24-multiwell plate • 3. Then activated for 4 hrs with DOS compounds • 4. Cells were then harvested, washed with PBS and resuspended in lysis buffer (RIPA with […]) • 5. The cell-lysis mix was incubated for 20 mins on ice • 6. Samples were centrifuged for 20 mins at the max speed • 7. The supernatant was collected and Lemmli buffer+β-Mercaptoethanol was added • 8. Samples were then boiled for 5 mins at 95° C. • 9. Samples were loaded on the polyacrylamide gel and left to run in TRIS-Glycine-SDS running buffer • 10. Once the run was completed the proteins were transferred from the gel to the nitrocellulose membrane by using the Trans-Blot machine (Biorad) • 11. Membrane was washed with 0.1% Tween-TBS buffer and blocked in 5% non-fat milk for 1 hr • 12. Followed incubation with the primary antibody o.n. • 13. The day after, the membrane was washed with 0.1% Tween-TBS buffer for three times for at least 30 mins each • 14. Secondary antibody was then added for 1h • 15. The membrane was the washed with 0.1% Tween-TBS buffer for three times for at least 30 mins each • 16. The signal was developed using ECL solution
This was shown by downregulation of sestrin 1, 2 and 3 expression, and AMPK and MAPK phosphorylation.

[2] = test system: paediatric neuroblastoma cell line (sh-sy5y); assay: Cancer cell death by FACS live-dead staining; type: cell-based; details: 1 uM to 20 uM, 48 hours
Procedure: (§1) (Left) Immortalized paediatric neuroblastoma cell line (sh-sy5y) was treated at different concentrations of DOS46L and DOS144D (from 1 uM to 20 uM) for 48 hours, then analysed by FACS with live-dead staining. (Right) Breast cancer cell line (MCF-7) was treated at the fixed concentration of DOS46L and DOS144D (20 uM) for 48 hours, then analysed by FACS with live-dead dye staining. UN depicts untreated controls. Results of triplicate cultures are shown.

[3] = test system: Breast cancer cell line (MCF-7); assay: Cancer cell death by FACS live-dead staining; type: cell-based; details: 20 uM, 48 hours
Procedure: as §1

H1N1 PR8/54 = type: in vivo, mice; details: old mice, vaccination with DOS, H1N1 PR8/54
Sestrin 2 = molecular target: T1, Sestrin 2 (Homo sapiens, UniProt P58004); assay: Streptavidin pull-down of biotinylated DOS46L with flag recombinant sestrins; type: binding; details: streptavidin immunoprecipitation
T1 sequence (P58004 1-480): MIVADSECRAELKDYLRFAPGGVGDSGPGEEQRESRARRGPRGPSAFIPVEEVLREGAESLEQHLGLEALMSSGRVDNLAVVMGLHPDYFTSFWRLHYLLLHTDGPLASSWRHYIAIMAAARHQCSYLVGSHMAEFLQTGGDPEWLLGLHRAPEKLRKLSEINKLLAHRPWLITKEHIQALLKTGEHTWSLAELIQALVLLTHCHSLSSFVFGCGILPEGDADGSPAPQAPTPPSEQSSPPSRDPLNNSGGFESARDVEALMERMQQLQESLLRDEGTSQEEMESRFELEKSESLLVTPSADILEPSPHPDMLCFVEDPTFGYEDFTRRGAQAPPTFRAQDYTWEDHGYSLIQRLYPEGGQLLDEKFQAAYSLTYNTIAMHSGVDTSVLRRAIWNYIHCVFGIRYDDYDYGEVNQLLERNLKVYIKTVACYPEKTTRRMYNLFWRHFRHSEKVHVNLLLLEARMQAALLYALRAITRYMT
Procedure: (§2) (A) Biotinylated DOS46L was mixed with flag recombinant Sestrins, immunoprecipitated with streptavidin and immunoblotted with flag Sestrins. […] Representative images from three experiments are shown. […] (D) DOS46L binds to the entire sMAC complex in CD4 T cells. CD4+ T cells were isolated from PBMCs from healthy donors and treated with biotinylated DOS46L compound (10 uM) for 4 hours. Cells were harvested for immunoprecipitation analysis.
(§3) The selective interaction was also studied using the cutting-edge […] algorithm for molecular docking predictions based on the deposited sestrin 2 crystal structure.

sestrin 1 = molecular target: T2, sestrin 1 (Homo sapiens, UniProt Q9Y6P5); assay: as above; type: binding; details: streptavidin immunoprecipitation
T2 sequence (Q9Y6P5 1-492): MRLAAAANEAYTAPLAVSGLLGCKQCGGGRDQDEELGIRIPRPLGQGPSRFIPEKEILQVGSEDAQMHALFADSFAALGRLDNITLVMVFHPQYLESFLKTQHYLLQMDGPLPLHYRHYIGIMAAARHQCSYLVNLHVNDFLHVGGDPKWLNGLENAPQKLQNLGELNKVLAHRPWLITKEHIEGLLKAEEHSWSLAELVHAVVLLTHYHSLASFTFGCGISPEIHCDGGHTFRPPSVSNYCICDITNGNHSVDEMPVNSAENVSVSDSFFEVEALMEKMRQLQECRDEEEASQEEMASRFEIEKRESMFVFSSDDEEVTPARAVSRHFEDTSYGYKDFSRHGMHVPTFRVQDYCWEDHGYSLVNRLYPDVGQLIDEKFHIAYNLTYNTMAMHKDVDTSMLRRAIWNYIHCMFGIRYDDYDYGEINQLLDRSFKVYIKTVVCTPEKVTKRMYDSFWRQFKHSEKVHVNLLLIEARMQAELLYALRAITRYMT
Procedure: as §2, §3

[4] = molecular target: T3, GATOR complex (WDR59 and mTOR) (Homo sapiens, UniProt P42345+Q6PJI9); assay: Pull-down of biotinylated DOS46L from CD4+ T cells; type: binding; details: 10 uM, 4 hours
T3 construct: endogenous in cells; host or cells: primary CD4+ T cells from PBMCs of healthy donors
Procedure: as §2
(§4) • 1. Cell pellet was lysed with 100 μL of denaturing lysis buffer • 2. Then mixed well by vortexing vigorously for 2-3 sec at maximum speed. • 3. Samples were then boiled at 95° C. for 5 min. • 4. Samples were then diluted 900 μl of non-denaturing lysis buffer and mixed gently. • 5. Cell lysates were then passed through a needle attached to a 1 ml syringe for 5-10 times or were sonicated. • 6. Incubated then on ice for 5 min • 7. Samples were pre-cleaned by spinning at the max speed at 4° C. for 20 min. • 8. Supernatants were collected in a new tube • 9. 7 ul (5 μg) of SESN2 (abcam) primary anti-body was added directly to the supernatant and incubated on the rota o.n. at 4° C. • 10. 200 ul of protein A/G beads were washed 4-5 times in IP buffer and blocked then o.n. in IP buffer with BSA and left on the rota at 4° C. • 11. The day after, 50 ul of protein A/G beads were added to the sample and incubated for 3 hrs on the rota at 4° C. • 12. […]

[5] = molecular target: T4, sMAC (sestrin 1, 2, and 3, AMPK and MAPKs) (Homo sapiens, UniProt P58004+Q9Y6P5); assay: Pull-down of biotinylated DOS46L from CD4+ T cells; type: binding; details: 10 uM, 4 hours
T4 construct: endogenous in cells; host or cells: primary CD4+ T cells from PBMCs of healthy donors
T4 sequence (Q9Y6P5 1-492): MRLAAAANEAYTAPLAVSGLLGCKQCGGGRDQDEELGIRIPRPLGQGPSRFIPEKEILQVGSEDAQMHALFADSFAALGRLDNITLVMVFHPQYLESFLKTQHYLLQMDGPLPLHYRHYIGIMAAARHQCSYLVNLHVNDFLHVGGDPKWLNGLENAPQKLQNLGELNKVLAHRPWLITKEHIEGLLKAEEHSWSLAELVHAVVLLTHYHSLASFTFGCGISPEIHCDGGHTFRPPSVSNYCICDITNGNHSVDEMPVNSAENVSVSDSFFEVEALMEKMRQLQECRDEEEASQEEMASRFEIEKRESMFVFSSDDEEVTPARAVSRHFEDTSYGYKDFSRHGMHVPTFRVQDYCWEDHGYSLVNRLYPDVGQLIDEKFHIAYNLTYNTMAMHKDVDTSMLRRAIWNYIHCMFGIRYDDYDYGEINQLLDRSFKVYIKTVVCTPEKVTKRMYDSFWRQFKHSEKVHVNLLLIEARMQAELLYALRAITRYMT
T4 sequence (P58004 1-480): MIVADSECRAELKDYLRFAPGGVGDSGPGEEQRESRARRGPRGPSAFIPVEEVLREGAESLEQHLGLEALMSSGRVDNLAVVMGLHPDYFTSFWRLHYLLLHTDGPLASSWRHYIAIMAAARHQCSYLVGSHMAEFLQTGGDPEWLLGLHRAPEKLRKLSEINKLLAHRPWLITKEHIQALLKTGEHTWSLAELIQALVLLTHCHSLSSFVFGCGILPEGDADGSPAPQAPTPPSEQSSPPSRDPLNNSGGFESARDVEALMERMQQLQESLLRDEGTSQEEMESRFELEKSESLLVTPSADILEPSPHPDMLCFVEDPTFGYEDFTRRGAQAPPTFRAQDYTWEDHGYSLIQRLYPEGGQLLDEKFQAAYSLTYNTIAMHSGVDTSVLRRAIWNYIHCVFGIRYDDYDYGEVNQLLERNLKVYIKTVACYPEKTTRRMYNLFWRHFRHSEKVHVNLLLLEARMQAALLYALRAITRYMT
T4 sequence (P58005 1-492 partner): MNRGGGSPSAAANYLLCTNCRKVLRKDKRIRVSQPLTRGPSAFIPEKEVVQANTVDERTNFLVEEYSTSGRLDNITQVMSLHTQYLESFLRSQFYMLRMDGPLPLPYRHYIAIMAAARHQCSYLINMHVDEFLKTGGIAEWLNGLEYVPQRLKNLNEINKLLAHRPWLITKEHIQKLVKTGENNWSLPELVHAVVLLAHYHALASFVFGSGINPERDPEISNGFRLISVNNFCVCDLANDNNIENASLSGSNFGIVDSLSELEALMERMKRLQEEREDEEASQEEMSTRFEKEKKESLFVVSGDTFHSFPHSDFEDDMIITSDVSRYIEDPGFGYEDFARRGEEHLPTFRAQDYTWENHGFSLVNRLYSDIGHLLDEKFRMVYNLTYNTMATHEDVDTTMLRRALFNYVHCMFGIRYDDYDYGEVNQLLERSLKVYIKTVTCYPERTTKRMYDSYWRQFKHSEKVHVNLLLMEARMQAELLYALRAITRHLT
Procedure: as §2, §4

[6] = molecular target: T5, flag recombinant Sestrin 3 (UniProt P58005 1-492, limits assumed); assay: recombinant sestrins, precipitation and immunoblot (FIG. 8B-C)
T5 construct: also called flagged sestrin 3; not shown: flag tag
T5 sequence (looked up): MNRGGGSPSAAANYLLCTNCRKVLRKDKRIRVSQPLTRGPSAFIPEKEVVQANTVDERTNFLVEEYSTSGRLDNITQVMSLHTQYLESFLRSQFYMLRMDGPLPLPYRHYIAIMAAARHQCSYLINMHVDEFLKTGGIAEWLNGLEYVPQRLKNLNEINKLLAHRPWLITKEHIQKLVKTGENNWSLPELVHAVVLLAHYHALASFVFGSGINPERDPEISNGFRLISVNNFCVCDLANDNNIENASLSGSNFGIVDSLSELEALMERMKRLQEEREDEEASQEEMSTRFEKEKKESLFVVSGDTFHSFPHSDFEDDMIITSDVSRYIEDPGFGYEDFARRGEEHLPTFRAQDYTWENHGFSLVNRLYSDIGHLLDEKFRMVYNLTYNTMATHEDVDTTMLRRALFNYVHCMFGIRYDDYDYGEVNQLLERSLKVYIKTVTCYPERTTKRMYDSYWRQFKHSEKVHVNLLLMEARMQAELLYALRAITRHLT

T3 sequence (Q6PJI9 whole entry, other chains not shown): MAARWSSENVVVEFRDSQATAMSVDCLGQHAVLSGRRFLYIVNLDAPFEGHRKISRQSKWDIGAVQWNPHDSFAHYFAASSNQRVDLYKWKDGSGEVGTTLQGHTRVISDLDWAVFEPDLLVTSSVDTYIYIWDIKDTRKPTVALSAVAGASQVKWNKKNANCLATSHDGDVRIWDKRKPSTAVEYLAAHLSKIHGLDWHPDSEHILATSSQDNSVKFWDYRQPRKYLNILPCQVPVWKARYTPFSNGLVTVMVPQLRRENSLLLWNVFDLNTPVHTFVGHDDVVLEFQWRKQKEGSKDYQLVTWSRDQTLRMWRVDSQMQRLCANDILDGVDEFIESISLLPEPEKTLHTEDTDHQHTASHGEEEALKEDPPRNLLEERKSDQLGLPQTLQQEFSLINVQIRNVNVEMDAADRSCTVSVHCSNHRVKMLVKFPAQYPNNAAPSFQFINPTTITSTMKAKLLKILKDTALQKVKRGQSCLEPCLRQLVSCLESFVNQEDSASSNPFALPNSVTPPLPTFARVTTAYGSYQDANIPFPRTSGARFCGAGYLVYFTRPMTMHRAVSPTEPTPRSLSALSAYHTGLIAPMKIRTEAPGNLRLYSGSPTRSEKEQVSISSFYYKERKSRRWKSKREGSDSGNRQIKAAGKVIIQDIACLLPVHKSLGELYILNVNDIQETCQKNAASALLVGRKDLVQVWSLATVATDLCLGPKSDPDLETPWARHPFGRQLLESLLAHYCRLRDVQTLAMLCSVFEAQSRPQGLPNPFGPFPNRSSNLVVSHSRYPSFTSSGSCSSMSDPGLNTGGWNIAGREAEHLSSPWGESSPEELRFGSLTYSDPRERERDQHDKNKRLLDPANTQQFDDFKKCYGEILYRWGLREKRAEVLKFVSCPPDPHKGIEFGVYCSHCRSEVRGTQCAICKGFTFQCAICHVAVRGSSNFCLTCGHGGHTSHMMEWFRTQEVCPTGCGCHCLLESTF

With `CC(C)C[C@H]1NC(=O)[C@@H](CC(C)C)NC(=O)[C@@H](Cc2c[nH]c3ccccc23)NC(=O)[C@@H](CCC(=O)O)NC(=O)CNC1=O` [DOS144D] the “effectiveness at sMAC inactivation among all of the DOS compounds tested” value [1] was “most effective”, the “sestrins inhibited (pan or selective inhibitor)” value ([1]; CD4+ T cells, 4 hours, FIG. 5 heat-map) was “inhibit all three sestrins” and the cancer cell death [2] was “induction of cancer cell death”. The cancer cell death [3] was “induction of cancer cell death” and the “survival data, comparison of compounds” value (H1N1 PR8/54) was “similar”.

“biotinylated DOS46L: biotinylated variant of DOS46L used for pull-down (cyclo(AFIPV); also: biotinylated, site not given here)” was tested, and the “direct binding to sestrin 2” value (Sestrin 2) was “directly binds”, the “direct binding to sestrin 1” value (sestrin 1) was “directly binds” and the “association with elements of the GATOR complex in cells” value [4] was “not with elements of the GATOR complex”. The “association with sMAC in cells” value [5] was “found in the sMAC”.

B1: flag recombinant Sestrin 1 (other, UniProt Q9Y6P5 1-492, looked up)
chain: MRLAAAANEAYTAPLAVSGLLGCKQCGGGRDQDEELGIRIPRPLGQGPSRFIPEKEILQVGSEDAQMHALFADSFAALGRLDNITLVMVFHPQYLESFLKTQHYLLQMDGPLPLHYRHYIGIMAAARHQCSYLVNLHVNDFLHVGGDPKWLNGLENAPQKLQNLGELNKVLAHRPWLITKEHIEGLLKAEEHSWSLAELVHAVVLLTHYHSLASFTFGCGISPEIHCDGGHTFRPPSVSNYCICDITNGNHSVDEMPVNSAENVSVSDSFFEVEALMEKMRQLQECRDEEEASQEEMASRFEIEKRESMFVFSSDDEEVTPARAVSRHFEDTSYGYKDFSRHGMHVPTFRVQDYCWEDHGYSLVNRLYPDVGQLIDEKFHIAYNLTYNTMAMHKDVDTSMLRRAIWNYIHCMFGIRYDDYDYGEINQLLDRSFKVYIKTVVCTPEKVTKRMYDSFWRQFKHSEKVHVNLLLIEARMQAELLYALRAITRYMT
notes: also called flagged sestrin 1; not shown: flag tag
B1: no binding [6].
